The series can be described thus: in vivo. Also noted: species or system Sprague-Dawley rats. The following applies: rat, iv, 0.033 mg/kg. An outline of the steps: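 Peptide plasma levels measured by UPLC-MS/MS (C18, product-ion monitoring) after protein precipitation or WCX SPE, calibrated in K2EDTA/protease-inhibitor rat plasma. Dosing in non-fasted male Sprague-Dawley rats (n=3): 0.033 mg/kg over 1 h by IV or SC infusion, or 0.3 mg/kg SC bolus; sampling up to 48 h.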

We go through two compounds from patent US12018059B2, “Human amylin analog polypeptides and methods of use” (Intarcia Therapeutics, Inc., priority 2018, dated 2024).

Starred links: 1 amine or outer side, 2 acyl side, 3 side chain; linkers in the order of their positions; H or OH if unused. Positions of bridges follow the written chain, without caps; N, C: chain ends. Residues, ends and D or L forms follow the SMILES beside them. Groups on a side chain read outwards from the residue. *: point of attachment. X3 = O=C(O)CCCCCCCCCCCCCCCCCCC(=O)N[C@@H](CCC(=O)NCOCCOCC(=O)NCOCCOCC(=O)*)C(=O)O; C16 diacid = O=C(O)CCCCCCCCCCCCCCC(=O)*; γGlu = O=C(O)[C@H](CCC(=O)[*:2])N[*:1]

As for `CC[C@H](C)[C@H](NC(=O)[C@@H]1CCCN1C(=O)CNC(=O)[C@H](Cc1ccccc1)NC(=O)[C@H](CC(N)=O)NC(=O)[C@H](CC(N)=O)NC(=O)[C@H](CO)NC(=O)[C@H](CO)NC(=O)[C@H](CCCCN)NC(=O)[C@H](Cc1c[nH]cn1)NC(=O)[C@H](CC(C)C)NC(=O)[C@H](CCCCNC(=O)CC[C@H](NC(=O)CC[C@H](NC(=O)COCCOCNC(=O)COCCOCNC(=O)CC[C@H](NC(=O)CCCCCCCCCCCCCCCCCCC(=O)O)C(=O)O)C(=O)O)C(=O)O)NC(=O)[C@H](Cc1ccc(O)cc1)NC(=O)[C@H](C)NC(=O)[C@H](CC(C)C)NC(=O)[C@H](CCCNC(=N)N)NC(=O)[C@H](CCC(N)=O)NC(=O)[C@@H](NC(=O)[C@H](C)NC(=O)[C@@H]1CSSC[C@H](NC(=O)[C@@H](N)CO)C(=O)N[C@@H](CC(N)=O)C(=O)N[C@@H]([C@@H](C)O)C(=O)N[C@@H](CO)C(=O)N[C@@H]([C@@H](C)O)C(=O)N1)[C@@H](C)O)C(=O)N[C@@H](CC(C)C)C(=O)N1CCC[C@H]1C(=O)N1CCC[C@H]1C(=O)N[C@H](C(=O)N[C@@H](CCCCN)C(=O)N[C@H](C(=O)NCC(=O)N[C@@H](CO)C(=O)N[C@@H](CCC(=O)O)C(=O)N[C@H](C(=O)N[C@@H](Cc1ccc(O)cc1)C(N)=O)[C@@H](C)O)C(C)C)[C@@H](C)O` [Compound A85] (H-SCNTSTCATQRLAYK([γGlu-γGlu-X3])LHKSSNNFGPILPPTKVGSETY-NH2; disulfide 2-7; N-terminus assumed), the Vd (in general, a proportionality between amount in the body and measured concentration, not a real space) came to 0.146 L/kg; the clearance (commonly the rate of elimination divided by the concentration) stood at 0.0496 mL/min/kg; the half-life (as a rule, how long it takes for the measured level to halve) is 2200 min.
`CC[C@H](C)[C@H](NC(=O)[C@@H]1CCCN1C(=O)CNC(=O)[C@H](Cc1ccccc1)NC(=O)[C@H](CC(N)=O)NC(=O)[C@H](CC(N)=O)NC(=O)[C@H](CO)NC(=O)[C@H](CO)NC(=O)[C@H](CCCCN)NC(=O)[C@H](Cc1c[nH]cn1)NC(=O)[C@H](CC(C)C)NC(=O)[C@H](CCCCNC(=O)CCCCCCCCCCCCCCC(=O)O)NC(=O)[C@H](CC(N)=O)NC(=O)[C@H](C)NC(=O)[C@H](CC(C)C)NC(=O)[C@H](CCCNC(=N)N)NC(=O)[C@H](CCC(N)=O)NC(=O)[C@@H](NC(=O)[C@H](C)NC(=O)[C@@H]1CSSC[C@H](NC(=O)[C@@H](N)CO)C(=O)N[C@@H](CC(N)=O)C(=O)N[C@@H]([C@@H](C)O)C(=O)N[C@@H](CO)C(=O)N[C@@H]([C@@H](C)O)C(=O)N1)[C@@H](C)O)C(=O)N[C@@H](CC(C)C)C(=O)N1CCC[C@H]1C(=O)N1CCC[C@H]1C(=O)N[C@H](C(=O)N[C@@H](CCCCN)C(=O)N[C@H](C(=O)NCC(=O)N[C@@H](CO)C(=O)N[C@@H](CCC(=O)O)C(=O)N[C@H](C(=O)N[C@@H](Cc1ccc(O)cc1)C(N)=O)[C@@H](C)O)C(C)C)[C@@H](C)O` [Compound A72] (H-SCNTSTCATQRLANK(C16 diacid)LHKSSNNFGPILPPTKVGSETY-NH2; disulfide 2-7): the Vd stood at 0.172 L/kg, the clearance was determined as 1.54 mL/min/kg and the half-life is 206 min.
